In patent US7652015B2, “Kinase inhibitors” (Eli Lilly and Company, priority 2006, dated 2010):

Key:
Type in all cases: in vivo
[1] = test system: TNFα; assay: Effect on intra-articular LPS induced TNFα in rat ankle synovial lavage fluid; conditions: female Lewis rats, orally, intra-articular LPS 10 μg one hour later, lavage after two hours
Protocol: Intra-articular injection of LPS into rat ankles induces the synthesis of TNFα, which can be measured in synovial lavage fluid. High levels of TNFα are detectable within 2 hours. Since the joint is the site where arthritis develops, this model can rapidly determine whether an orally administered compound has an effect on an inflammatory response in the synovium.
Six female Lewis rats (150-200 g) are place in each treatment group. The animals are given vehicle (1% NaCarboxymethylcellulose-0.25% Tween 80) or test compound
(1 mg/kg, 3 mg/kg, 10 mg/kg, and 30 mg/kg) orally. One hour later, 10 μl LPS (10 μg) is administered intra-articularly into the right ankle of each rat, while the left ankle receives 10 μL of saline. After two hours, each ankle is lavaged with 100 μL of saline. The lavage is collected and stored at −80° C. • Group #1: Vehicle (1% NaCMC-0.25% Tween 80, 1 mL, PO) • Group #2: Test compound (1 mg/kg, 1 mL, PO) • Group #3: Test compound (3 mg/kg, 1 mL, PO) • Group #4: Test compound (10 mg/kg, 1 mL, PO) • Group #5: Test compound (30 mg/kg, 1 mL, PO)
TNFα is measured with a commercially available ELISA kit (R&D, RTA00).

[2] = test system: Phospho-MAPKAPK2; assay: Anisomycin-stimulated mice ex-vivo phospho-MAPKAPK2 inhibition assay by flow cytometry; conditions: female Balb/c mice, po, blood after 2 hours, ex vivo 10 μg/ml anisomycin, CD11b+Ly6G- cells
Protocol: Female Balb/c mice with 8-10 week-old age are purchased from Taconic Inc. and dosed po with 0.2 mL volume of compounds at the concentrations of 30, 10, 3, 1 mg/kg. Blood is obtained from cardiac puncture after 2 hours or other indicated time periods and collected in EDTA-containing tubes. 100 μL of blood is incubated at 37° C. for 10 minutes. Whole blood is then mixed with FITC-conjugated rat anti-mouse Ly-6G mAb (1:250) and APC-conjugated rat anti-mouse CD11b mAb (1:100) and stimulated with 10 μg/ml anisomycin. Both cell surface antigen staining and anisomycin stimulation is conducted at 37° C. for 15 min and followed up with Lyse/Fix buffer (BD Biosciences, Cat#558049) for 10 min at room temperature. Lysed blood samples are spun down at 600×g for 8 minutes at room temperature with additional wash once by 4 mL PBS. 200 μL of diluted anti-Phospho-MAPKAPK-2 (Thr334) antibody (1:100 dilution) (Cell Signaling, Cat#3041) and mouse BD Fc Block (1:100 dilution) (BD Biosciences, 553141) in permeabilization Medium B (Caltag, Catg GAS002S-5) are added into blood cells and incubate at room temperature for 30 minutes. After the incubation, 3 mL of stain/wash buffer is added and cells are spanned down as described above with additional wash with 3 ml stain/wash buffer. […] Mean fluorescence of phosphono-MapKap-K2 staining is measured on gated CD11b+Ly6G-cells. […]

[3] = test system: collagen induced arthritis; assay: Rat collagen induced arthritis efficacy model; conditions: female Lewis rats, PO, bid for 14 days
Protocol: Female Lewis rats (≈190 g, Charles River Labs) are immunized with Bovine type II collagen (2 mg/mL) emulsified with an equal volume of adjuvant (aluminum hydroxide). are used. The rats are immunized with approximately […] of the emulsion intradermally on the back near the base of the tail. All animals are re-immunized 7 days later according to the same protocol. The rats begin to develop arthritis (characterized by swelling and redness of one or both ankles) from 12 to 14 days after the first immunization. The rats are equally distributed into five treatment groups at the first signs of arthritis and treatment is initiated with each rat dosed bid for 14 days.
Group 1 Vehicle (1% NaCarboxymethylcellulose+0.25% Tween 80) 1 mL, PO,
• Bid×14 days • Group 2 Test compound, 5 mg/kg, 1 mL, PO, Bid×14 • Group 3 Test compound, 15 mg/kg, 1 mL, PO, Bid×14 • Group 4 Test compound, 30 mg/kg, 1 mL, PO, Bid×14 • Group 5 Prednisolone 10 mg/kg, 1 mL, PO, qd×14 Ankle diameter is measured with calipers 5 days a week and recorded. Data is expressed as the area under the curve (AUC) generated from the composite inflammation scores and statistical analysis performed.

CS(=O)(=O)O.Cc1ccc(-n2nc(C(C)(C)C)cc2NC(=O)Nc2ccc(N3CCN(C(=O)c4c(F)cccc4F)CC3)nc2C)cc1 [Example 5, 1-(5-tert-Butyl-2-p-tolyl-2H-pyrazol-3-yl)-3-{6-[4-(2,6-difluoro-benzoyl)-piperazin-1-yl]-2-methyl-pyridin-3-yl}-urea methanesulfonate]
TMED50, inhibition of TNFα synthesis in synovial lavage fluid [1]: 3.57 mg/kg | TMED50, inhibition of p-MAPKAPK synthesis [2]: 2.28 mg/kg | histology TMED 50 [3]: 5 mg/kg bid
